Test results reported in patent US10005767B2, “Compositions and methods for inhibition of the JAK pathway” (Rigel Pharmaceuticals, Inc., priority 2009, dated 2018).
pIC50: −log10 of the molar value.

Test system: human primary T-cells, IL-2 stimulated proliferation (JAK-1 and JAK-3 dependent; reported as JAK3 activity)
Assay: Human primary T-cell proliferation stimulated by IL-2 (Example 3)
Format: cell-based
Settings: Homo sapiens, T-cell, tested under conditions described in Example 3 (IL-2 stimulated human primary T-cell proliferation); read-out: ability to inhibit JAK3 activity, IC50 range (Table V)
In short: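 Peripheral-blood human T-cells pre-activated via TCR/CD28, IL-2-starved overnight, then cultured 72 h at 37 °C with compound in Yssel's medium containing IL-2 (80 U/mL in cell suspension). Proliferation read as viable-cell ATP by CellTiter-Glo luminescence; reduction versus control taken as JAK pathway inhibition.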

Row | SMILES | pIC50
1 | COc1cc(Nc2ncc(C)c(Nc3ccc4oc(=O)[nH]c4c3)n2)cc(OC)c1C [Compound I-529, 5-(2-(3,5-dimethoxy-4-methylphenylamino)-5-methylpyrimidin-4-ylamino)benzo[d]oxazol-2(3H)-one] | > 6.30
2 | CCN1CC2CN(c3ncc(Nc4ncc(C)c(Nc5ccc6oc(=O)[nH]c6c5)n4)cc3C(F)(F)F)CC2C1 (centres unmarked) [II-119, N2-[2-(3-ethyl-3,7-diazabicyclo[3.3.0]octan-7-yl)-3-trifluoromethylpyridin-5-yl]-5-methyl-N4-(2-oxo-2,3-dihydro-1,3-benzoxazol-5-yl)-2,4-pyrimidinediamine] | > 6.30
3 | Cc1ccc(Nc2ncc(C)c(Nc3ccc4oc(=O)[nH]c4c3)n2)cc1-c1cccnc1 [Compound I-444, 5-(5-methyl-2-(4-methyl-3-(pyridin-3-yl)phenylamino)pyrimidin-4-ylamino)benzo[d]oxazol-2(3H)-one] | > 6.30
4 | Cc1cnc(Nc2cnc(N3CCN(C)CC3)c(C(F)(F)F)c2)nc1Nc1ccc2oc(=O)[nH]c2c1 [II-39, N4-(benzo[d]oxazolin-2(3H)-on-5-yl)-N2-[3-trifluoromethyl-2-(4-methylpiperazin-1-yl)pyridin-5-yl]-5-methylpyrimidine-2,4-diamine] | > 6.30
5 | Cc1cc(Nc2ncc(C)c(Nc3ccc4oc(=O)[nH]c4c3)n2)cnc1C [II-153, N2-(2,3-dimethylpyridin-5-yl)-5-methyl-N4-(2-oxo-2,3-dihydro-1,3-benzoxazol-5-yl)-2,4-pyrimidinediamine] | > 6.30
6 | Cc1cnc(Nc2ccc3c(cnn3C)c2)nc1Nc1ccc2oc(=O)[nH]c2c1 [IV-42, 5-methyl-N2-(1-methylindazol-5-yl)-N4-(2-oxo-2,3-dihydro-1,3-benzoxazol-5-yl)-2,4-pyrimidinediamine] | > 6.30
7 | Cc1cnc(Nc2cccc(C(=O)N3CCCC3)c2)nc1Nc1ccc2oc(=O)[nH]c2c1 [Compound I-246, 5-(5-methyl-2-(3-(pyrrolidine-1-carbonyl)phenylamino)pyrimidin-4-ylamino)benzo[d]oxazol-2(3H)-one] | > 6.30
8 | Cc1cnc(Nc2c(C)cccc2C)nc1Nc1ccc2oc(=O)[nH]c2c1 [IV-60, 5-(2-(2,6-dimethylphenylamino)-5-methylpyrimidin-4-ylamino)benzo[d]oxazol-2(3H)-one] | 5.00 to 5.30
9 | Cc1cnc(Nc2ccc(OCCCN(C)C)c(C(F)(F)F)c2)nc1Nc1ccc2oc(=O)[nH]c2c1 [Compound I-404, 5-{2-[4-(3-Dimethylamino-propoxy)-3-trifluoromethyl-phenylamino]-5-methyl-pyrimidin-4-ylamino}-3H-benzooxazol-2-one] | > 6.30
10 | O=c1[nH]c2cc(Nc3nc(Nc4ccc(N5C[C@@H]6C[C@H]5CO6)nc4)ncc3F)ccc2o1 [II-34, N4-(benzoxazolin-2-on-5-yl)-N2-[2-((1S,4S)-2-oxa-5-azabicyclo[2.2.1]heptan-5-yl)pyridin-5-yl]-5-fluoropyrimidine-2,4-diamine] | > 6.30
11 | Cc1cnc(Nc2ccc(C(=O)N(C)C)cc2)nc1Nc1ccc2oc(=O)[nH]c2c1 [Compound I-132, N,N-Dimethyl-4-[5-methyl-4-(2-oxo-2,3-dihydro-benzooxazol-5-ylamino)-pyrimidin-2-ylamino]-benzamide] | > 6.30
12 | Cc1cnc(Nc2ccc3c(c2)NC(=O)CO3)nc1Nc1ccc2oc(=O)[nH]c2c1 [IV-25, 6-(5-methyl-4-(2-oxo-2,3-dihydrobenzo[d]oxazol-5-ylamino)pyrimidin-2-ylamino)-2H-benzo[b][1,4]oxazin-3 (4H)-one] | > 6.30
13 | Cc1cnc(Nc2ccc(N3CCN(C)CC3)nc2)nc1Nc1ccc2[nH]c(=O)oc2c1 [II-25, 6-(5-methyl-2-(6-(4-methylpiperazin-1-yl)pyridin-3-ylamino)pyrimidin-4-ylamino)benzo[d]oxazol-2(3H)-one] | > 6.30
14 | Cc1cnc(Nc2ccc(N3CCCN(C)CC3)nc2)nc1Nc1ccc2oc(=O)[nH]c2c1 [II-3, N4-(benzo[d]oxazol-2(3H)-on-5-yl)-N2-(6-(4-methyl-1,4-diazepan-1-yl)pyridin-3-yl)-5-methylpyrimidine-2,4-diamine] | > 6.30
15 | Cc1cnc(Nc2ccc(N[C@H]3CCCNC3)nc2)nc1Nc1ccc2oc(=O)[nH]c2c1 [II-104, (S)-5-(5-methyl-2-(6-(piperidin-3-ylamino)pyridin-3-ylamino)pyrimidin-4-ylamino)benzo[d]oxazol-2(3H)-one] | > 6.30
16 | Cc1cnc(Nc2ccc(N3CCC(N(C)C)C3)nc2)nc1Nc1ccc2oc(=O)[nH]c2c1 (centres unmarked) [II-80, 5-(2-(6-(3-(dimethylamino)pyrrolidin-1-yl)pyridin-3-ylamino)-5-methylpyrimidin-4-ylamino)benzo[d]oxazol-2(3H)-one] | > 6.30
17 | Cc1cnc(Nc2ccc(N3C[C@@H]4C[C@H]3CO4)nc2)nc1Nc1ccc2oc(=O)[nH]c2c1 [II-32, N4-(benzoxazolin-2-on-5-yl)-N2-[2-((1S,4S)-2-oxa-5-azabicyclo[2.2.1]heptan-5-yl)pyridin-5-yl]-5-methylpyrimidine-2,4-diamine] | > 6.30
18 | Cc1cnc(Nc2ccc(N(C)[C@@H]3CCCN(Cc4ccccc4)C3)nc2)nc1Nc1ccc2oc(=O)[nH]c2c1 [II-106, (R)-5-(2-(6-((1-benzylpiperidin-3-yl)(methyl)amino)pyridin-3-ylamino)-5-methylpyrimidin-4-ylamino)benzo[d]oxazol-2(3H)-one] | > 6.30
19 | COc1cc(Nc2ncc(C)c(Nc3ccc4oc(=O)[nH]c4c3)n2)cc(C)c1F [Compound I-432, 5-(2-(4-fluoro-3-methoxy-5-methylphenylamino)-5-methylpyrimidin-4-ylamino)benzo[d]oxazol-2(3H)-one] | > 6.30
20 | Cc1cnc(Nc2ccc(N3CCC4(CCN(C)C4)C3)nc2)nc1Nc1ccc2oc(=O)[nH]c2c1 (centres unmarked) [II-133, 5-methyl-N2-[2-(7-methyl-2,7-diazaspiro[4.4]nonan-2-yl)pyridin-5-yl]-N4-(2-oxo-2,3-dihydro-1,3-benzoxazol-5-yl)-2,4-pyrimidinediamine] | > 6.30
21 | Cc1cnc(Nc2cnc(C3CC4CCC(C3)N4C(=O)C(F)(F)F)c(C)c2)nc1Nc1ccc2oc(=O)[nH]c2c1 (centres unmarked) [II-69, 5-(5-methyl-2-(5-methyl-6-(8-(2,2,2-trifluoroacetyl)-8-aza-bicyclo[3.2.1]octan-3-yl)pyridin-3-ylamino)pyrimidin-4-ylamino)benzo[d]oxazol-2(3H)-one] | > 6.30
22 | Cc1cnc(Nc2ccc(N3CCC(NC(=O)NC(C)(C)C)C3)nc2)nc1Nc1ccc2oc(=O)[nH]c2c1 (centres unmarked) [II-97, 1-tert-butyl-3-(1-(5-(5-methyl-4-(2-oxo-2,3-dihydrobenzo[d]oxazol-5-ylamino)pyrimidin-2-ylamino)pyridin-2-yl)pyrrolidin-3-yl)urea] | > 6.30
23 | Cc1cnc(Nc2ccc(C(=O)O)c(C(F)(F)F)c2)nc1Nc1ccc2oc(=O)[nH]c2c1 [Compound I-222, 4-(5-methyl-4-(2-oxo-2,3-dihydrobenzo[d]oxazol-5-ylamino)pyrimidin-2-ylamino)-2-(trifluoromethyl)benzoic acid] | 5.30 to 6.30

Same assay, conditions: tested under conditions described in Example 3 (IL-2 stimulated human primary T-cell proliferation); read-out: ability to inhibit JAK3 activity, IC50 range (Table V)

Row | SMILES | pIC50
24 | Cc1cnc(Nc2ccc(OC(F)(F)F)c(Cl)c2)nc1Nc1ccc2oc(=O)[nH]c2c1 [Compound I-366, N2-(3-chloro-4-trifluoromethoxy)phenyl-5-methyl-N4-(2-oxo-2,3-dihydro-1,3-benzoxazol-5-yl)-2,4-pyrimidinediamine] | > 6.30
25 | CNC(=O)c1cc(Nc2ncc(C)c(Nc3ccc4oc(=O)[nH]c4c3)n2)ccc1N1CCN(C)CC1 [Compound I-323, 5-methyl-N2-[3-methylaminocarbonyl-4-(4-methylpiperazino)]phenyl-N4-(2-oxo-2,3-dihydro-1,3-benzoxazol-5-yl)-2,4-pyrimidinediamine] | > 6.30
26 | Cc1cnc(Nc2cccc(N3CCOCC3)c2)nc1Nc1ccc2oc(=O)[nH]c2c1 [Compound I-46, N4-(benzo[d]oxazol-2(3H)-on-5-yl)-N2-((3-morpholinyl)phenyl)-5-methylpyrimidine-2,4-diamine] | > 6.30
27 | Cc1cnc(Nc2cccc(NS(C)(=O)=O)c2)nc1Nc1ccc2[nH]c(=O)oc2c1 [Compound I-102, N2-((3-methylsulfonylamino)phenyl)-N4-(2-oxo-2,3-dihydrobenzo[d]oxazol-6-yl)-5-methylpyrimidine-2,4-diamine] | > 6.30
28 | COc1ccc(Nc2ncc(C)c(Nc3ccc4oc(=O)[nH]c4c3)n2)cc1OCc1ccncc1 [Compound I-298, N2-{4-methoxy-3-[(pyridin-4-yl)methoxy]}phenyl-5-methyl-N4-(2-oxo-2,3-dihydro-1,3-benzoxazol-5-yl)-2,4-pyrimidinediamine] | > 6.30
29 | Cc1cnc(Nc2cccc(NS(C)(=O)=O)c2)nc1Nc1ccc2oc(=O)n(C)c2c1 [Compound I-71, N2-((3-methylsulfonylamino)phenyl)-N4-(3-methyl-2-oxo-2,3-dihydrobenzo[d]oxazol-5-yl)-5-methylpyrimidine-2,4-diamine] | > 6.30
30 | COc1cc(Nc2ncc(C)c(Nc3ccc4oc(=O)[nH]c4c3)n2)cc(C(F)(F)F)c1OC [Compound I-485, N2-(3,4-dimethoxy-5-trifluoromethyl)phenyl-5-methyl-N4-(2-oxo-2,3-dihydro-1,3-benzoxazol-5-yl)-2,4-pyrimidinediamine] | > 6.30
31 | COCCOc1cc(Nc2ncc(C)c(Nc3ccc4oc(=O)[nH]c4c3)n2)cc(C(F)(F)F)c1 [Compound I-384, N2-[3-(2-methoxy)ethoxy-5-trifluoromethyl]phenyl-5-methyl-N4-(2-oxo-2,3-dihydro-1,3-benzoxazol-5-yl)-2,4-pyrimidinediamine] | > 6.30
32 | Cc1cnc(Nc2cccc(S(C)(=O)=O)c2)nc1Nc1ccc2[nH]c(=O)[nH]c2c1 [Compound I-22, N4-(benzimidazolin-2-on-5-yl)-N2-(3-methylsulfonyl)phenyl-5-methylpyrimidine-2,4-diamine] | > 6.30
